Measurements: ChEMBL document CHEMBL2203102, “Crucial Role of 3-Bromoethyl in Removing the Estrogenic Activity of 17β-HSD1 Inhibitor 16β-(m-Carbamoylbenzyl)estradiol” (ACS Med Chem Lett, 2011)

Experiments:
[1] = biological target: T1, 17-beta-hydroxysteroid dehydrogenase type 1 (Homo sapiens) (UniProt P14061); assay: Inhibition of 17beta-HSD1 in human T47D cells assessed as decrease in transformation of [14C]estrone to [14C]-estradiol at 0.1 uM after 24 hrs by thin layer chromatography; format: cell-based
T1 sequence (whole entry): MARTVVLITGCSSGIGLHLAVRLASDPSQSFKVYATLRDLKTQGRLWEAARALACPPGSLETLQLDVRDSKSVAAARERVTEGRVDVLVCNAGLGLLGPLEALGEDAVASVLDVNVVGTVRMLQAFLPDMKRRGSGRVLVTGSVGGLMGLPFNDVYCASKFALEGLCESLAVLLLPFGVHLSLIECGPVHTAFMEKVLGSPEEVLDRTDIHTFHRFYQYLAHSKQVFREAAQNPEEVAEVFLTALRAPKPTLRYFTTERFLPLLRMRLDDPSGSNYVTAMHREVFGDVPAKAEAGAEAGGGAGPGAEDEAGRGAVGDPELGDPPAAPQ

[2] = biological target: T1, 17-beta-hydroxysteroid dehydrogenase type 1 (Homo sapiens); assay: Inhibition of 17beta-HSD1 in human T47D cells assessed as decrease in transformation of [14C]estrone to [14C]-estradiol at 0.01 uM after 24 hrs by thin layer chromatography; format: cell-based
[3] = system: MCF7; assay: Estrogenic activity in estrogen-starved estrogen sensitive human MCF7 cells assessed as stimulation of cell proliferation at 0.1 to 1 uM after 7 days by CellTiter96 assay; format: ADME, cell-based; conditions: mcf7, 168 h

Row | SMILES | inhibition [1] | inhibition [2] | Activity [3]
1 | C[C@]12CC[C@@H]3c4ccc(O)cc4CC[C@H]3[C@@H]1C[C@H](Cc1cccc(C(N)=O)c1)[C@@H]2O | 66% | 35% | 
2 | C[C@]12CC[C@@H]3c4ccc(CBr)cc4CC[C@H]3[C@@H]1C[C@H](Cc1cccc(C(N)=O)c1)[C@@H]2O | 36% | 20% | 
3 | C[C@]12CC[C@@H]3c4ccc(CCO)cc4CC[C@H]3[C@@H]1C[C@H](Cc1cccc(C(N)=O)c1)[C@@H]2O | 17% | 7% | 
4 | C[C@]12CC[C@@H]3c4ccc(CCBr)cc4CC[C@H]3[C@@H]1C[C@H](Cc1cccc(C(N)=O)c1)[C@@H]2O | 49% | 23% | Non-toxic
5 | C[C@]12CC[C@@H]3c4ccc(CO)cc4CC[C@H]3[C@@H]1C[C@H](Cc1cccc(C(N)=O)c1)[C@@H]2O |  | 14% | 
